Measured values: patent US8859541B2, “6-alkynylpyridines” (Boehringer Ingelheim International GmbH, priority 2012, dated 2014)

Legend:
cIAP1 BIR3 = target: T1, cIAP1 BIR3 (Homo sapiens, UniProt Q13490); assay: cIAP1 BIR3 binding assay (DELFIA), displacement of SMAC peptide; conditions: GST-fusion BIR3 domain (aa 256 to 363) 10 nM, SMAC peptide 10 nM; activity of the (S)-isomers
T1 construct: covering amino acids 256 to 363; cIAP1 BIR3; made in house; host or cells: E. coli
Description: Biological Methods XIAP BIR3 and cIAP1 BIR3 Binding Assays (DELFIA)
Peptide […]-Lys(Biotin), representing the N-terminus of mature human SMAC (SMAC peptide), was used as interaction partner in the protein-peptide interaction assay.
BIR3 domains (10 nM) were incubated with SMAC peptide (10 nM) in Assay Buffer (50 mM Tris, 120 mM NaCl, 0.1% BSA, 1 mM DTT, 0.05% TritonX100) for one hour at room temperature in the presence of inhibitiory compounds. The assay mixture was transferred to a strepatvidin coated plate and incubated for one hour at room temperature to allow binding of the biotinylated peptide and associated BIR3 domains to the plate. After several washing steps Eu labeled anti-GST antibody (e.g. Perkin Elmer DELFIA Eu-N1-antiGST AD0250) was added to detect BIR3 domain-SMAC peptide interactions according to Perkin Elmer's instructions. […] Time resolved Europium fluoresecence was measured in a Wallac Victor using Standard assay settings.
DELFIA assay results were plotted against compound concentrations and Software GraphPad Prizm was used to calculate half maximal inhibitory concentrations (IC50 values).

XIAP BIR3 = target: T2, XIAP BIR3 (Homo sapiens, UniProt P98170); assay: XIAP BIR3 binding assay (DELFIA), displacement of SMAC peptide; conditions: GST-fusion BIR3 domain (aa 241 to 356) 10 nM, SMAC peptide 10 nM; activity of the (S)-isomers
T2 construct: covering amino acids 241 to 356; XIAP BIR3; made in house; host or cells: E. coli
T2 sequence (P98170 241-356): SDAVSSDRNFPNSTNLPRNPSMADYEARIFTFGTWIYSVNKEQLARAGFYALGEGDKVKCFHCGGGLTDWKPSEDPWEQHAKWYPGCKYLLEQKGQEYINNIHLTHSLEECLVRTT
Method in brief: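 Each BIR3 domain (10 nM) incubated with biotinylated N-terminal SMAC peptide (10 nM) and compound for 1 h at room temp in Tris/NaCl buffer with BSA, DTT and Triton X-100. Captured on streptavidin plates; bound BIR3 detected by Eu-labelled anti-GST time-resolved fluorescence, giving IC50 values.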

T1 sequence (Q13490 256-363): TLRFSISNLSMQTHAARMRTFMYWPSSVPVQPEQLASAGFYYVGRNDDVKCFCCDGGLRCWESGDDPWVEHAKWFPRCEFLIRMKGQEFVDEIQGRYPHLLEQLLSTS

Row | IC50 (cIAP1 BIR3) | IC50 (XIAP BIR3) | SMILES
1 | 1470 nM | 1920 nM | Cc1cc(C)cc(C#Cc2nc(NC(=O)C(C)N)cc3ccccc23)c1 (stereo not drawn) [Example 228, 2-amino-N-[1-[2-(3,5-dimethyl-phenyl)ethynyl]isoquinolin-3-yl]propanamide]
2 | 1 nM | 107 nM | CNC(C)C(=O)Nc1ccc(-c2c(-c3ccncc3)nc3cc(C)ccn23)c(C#Cc2ccc3c(c2)OCC(=O)N3C)n1 (stereo not drawn) [Example 94, 2-(methylamino)-N-[6-[2-(4-methyl-3-oxo-1,4-benzoxazin-7-yl)ethynyl]-5-(7-methyl-2-pyridin-4-ylimidazo[1,2-a]-pyridin-3-yl)pyridin-2-yl]-propanamide]
3 | 1 nM | 51 nM | CNC(C)C(=O)Nc1ccc(-c2c(C)nc3ccccn23)c(C#Cc2ccccc2)n1 (stereo not drawn) [Example 174, 2-(methylamino)-N-[5-(2-methyl-imidazo[1,2-a]pyridin-3-yl)-6-(2-phenylethynyl)pyridin-2-yl]-propanamide]
4 | 1 nM | 166 nM | CNC(C)C(=O)Nc1ccc(-c2c(C)nc3ccccn23)c(C#Cc2ccc(-n3cncn3)cc2)n1 (stereo not drawn) [Example 37, 2-(methylamino)-N-[5-(2-methylimidazo[1,2-a]pyridin-3-yl)-6-[2-[4-(1,2,4-triazol-1-yl)-phenyl]ethynyl]pyridin-2-yl]-propanamide]
5 | 1 nM | 107 nM | CNC(C)C(=O)Nc1ccc(-c2c(C)nc3ccccn23)c(C#Cc2ccc3cnn(C)c3c2)n1 (stereo not drawn) [Example 49, 2-(methylamino)-N-[5-(2-methylimidazo[1,2-a]pyridin-3-yl)-6-[2-(1-methylindazol-6-yl)-ethynyl]pyridin-2-yl]propan-amide]
6 | 166 nM | 1010 nM | CNC(C)C(=O)Nc1ccc(-c2ccc(OC)nc2OC)c(C#Cc2ccccc2)n1 (stereo not drawn) [Example 126, N-[5-(2,6-dimethoxypyridin-3-yl)-6-(2-phenylethynyl)pyridin-2-yl]-2-(methylamino)propanamide]
7 | 1 nM | 94 nM | CNC(C)C(=O)Nc1ccc(-c2c(C)nc3ccccn23)c(C#Cc2ccc3ncsc3c2)n1 (stereo not drawn) [Example 42, N-[6-[2-(1,3-benzothiazol-6-yl)-ethynyl]-5-(2-methyl-imidazo[1,2-a]pyridin-3-yl)-pyridin-2-yl]-2-(methylamino)-propanamide]
8 | 1 nM | 279 nM | CNC(C)C(=O)Nc1ccc(-c2c(C)nc3ccccn23)c(C#Cc2ccc(-c3ccon3)cc2)n1 (stereo not drawn) [Example 34, 2-(methylamino)-N-[5-(2-methylimidazo[1,2-a]pyridin-3-yl)-6-[2-[4-(1,2-oxazol-3-yl)-phenyl]ethynyl]pyridin-2-yl]-propanamide]
9 | – | 259 nM | CNC(C)C(=O)Nc1ccc(-c2c(C)nc3ccccn23)c(C#Cc2ccc(OC)c3ncccc23)n1 (stereo not drawn) [Example 85, N-[6-[2-(8-methoxyquinolin-5-yl)ethynyl]-5-(2-methyl-imidazo[1,2-a]pyridin-3-yl)-pyridin-2-yl]-2-(methylamino)-propanamide]
10 | – | 1070 nM | CNC(C)C(=O)Nc1ccc(-c2c(C)nc(N(C)C)nc2C)c(C#Cc2ccc3ncccc3c2)n1 (stereo not drawn) [Example 76, N-[5-[2-(dimethylamino)-4,6-dimethylpyrimidin-5-yl]-6-(2-quinolin-6-ylethynyl)pyridin-2-yl]-2-(methylamino)propan-amide]
11 | – | 310 nM | CNC(C)C(=O)Nc1ccc(-c2c(C)nc3ccccn23)c(C#Cc2ccc3c(Cl)nccc3c2)n1 (stereo not drawn) [Example 43, N-[6-[2-(1-chloroisoquinolin-6-yl)ethynyl]-5-(2-methyl-imidazo[1,2-a]pyridin-3-yl)-pyridin-2-yl]-2-(methylamino)-propanamide]
12 | – | 2020 nM | Cc1cccc(C)c1-c1ccc(NC(=O)C(C)N)nc1C#Cc1ccccc1 (stereo not drawn) [Example 104, 2-amino-N-[5-(2,6-dimethyl-phenyl)-6-(2-phenylethynyl)-pyridin-2-yl]propanamide]
13 | – | 698 nM | CNC(C)C(=O)Nc1ccc(-c2c(C)ccc3ncccc23)c(C#Cc2ccc3ncccc3c2)n1 (stereo not drawn) [Example 24, 2-(methylamino)-N-[5-(6-methylquinolin-5-yl)-6-(2-quinolin-6-ylethynyl)pyridin-2-yl]propanamide]
14 | – | 276 nM | CNC(C)C(=O)Nc1ccc(-c2cnn(C)c2-c2ccccc2)c(C#Cc2ccccc2)n1 (stereo not drawn) [Example 190, 2-(methylamino)-N-[5-(1-methyl-5-phenylpyrazol-4-yl)-6-(2-phenylethynyl)pyridin-2-yl]-propanamide]
15 | – | 2610 nM | CC(N)C(=O)Nc1cccc(C#Cc2ccc(F)cc2F)n1 (stereo not drawn) [Example 210, 2-amino-N-[6-[2-(2,4-difluorophenyl)ethynyl]pyridin-2-yl]propanamide]
16 | – | 2140 nM | CC(N)C(=O)Nc1cccc(C#Cc2ccsc2)n1 (stereo not drawn) [Example 216, 2-amino-N-[6-(2-thiophen-3-ylethynyl)pyridin-2-yl]propanamide]
17 | – | 1550 nM | CC(N)C(=O)Nc1ccc(-c2cc(F)cc(F)c2)c(C#Cc2ccccc2)n1 (stereo not drawn) [Example 111, 2-amino-N-[5-(3,5-difluorophenyl)-6-(2-phenyl-ethynyl)pyridin-2-yl]propanamide]
18 | – | 257 nM | CNC(C)C(=O)Nc1ccc(-c2ccc(F)nc2)c(C#Cc2ccccc2)n1 (stereo not drawn) [Example 146, N-[5-(6-fluoropyridin-3-yl)-6-(2-phenylethynyl)pyridin-2-yl]-2-(methylamino)propanamide]
19 | – | 146 nM | CNC(C)C(=O)Nc1ccc(-c2ccc(C(N)=O)nc2)c(C#Cc2ccccc2)n1 (stereo not drawn) [Example 183, 5-[6-[[2-(methylamino)-propanoyl]amino]-2-(2-phenyl-ethynyl)pyridin-3-yl]pyridine-2-carboxamide]
20 | – | 787 nM | CNC(C)C(=O)Nc1ccc(-c2cncnc2)c(C#Cc2ccc3[nH]cnc3c2)n1 (stereo not drawn) [Example 10, N-[6-[2-(1H-benzimidazol-5-yl)ethynyl]-5-pyrimidin-5-ylpyridin-2-yl]-2-(methyl-amino)propanamide]
21 | – | 4280 nM | CNC(C)C(=O)Nc1ccc(-c2cncnc2)c(C#Cc2ccc3oc4ccccc4c3c2)n1 (stereo not drawn) [Example 20, N-[6-(2-dibenzofuran-2-yl-ethynyl)-5-pyrimidin-5-ylpyridin-2-yl]-2-(methyl-amino)propanamide]
22 | – | 431 nM | CNC(C)C(=O)Nc1ccc(-c2ccnc3ccccc23)c(C#Cc2cc(F)cc(F)c2)n1 (stereo not drawn) [Example 152, N-[6-[2-(3,5-difluorophenyl)-ethynyl]-5-quinolin-4-ylpyridin-2-yl]-2-(methylamino)propanamide]
23 | – | 918 nM | CNC(C)C(=O)Nc1ccc(-c2cnc(SC)nc2C#N)c(C#Cc2ccc3cnccc3c2)n1 (stereo not drawn) [Example 59, N-[5-(4-cyano-2-methylsulfanylpyrimidin-5-yl)-6-(2-isoquinolin-6-ylethynyl)-pyridin-2-yl]-2-(methylamino)-propanamide]
24 | – | 406 nM | CNC(C)C(=O)Nc1ccc(-c2cc(C#N)ccc2Cl)c(C#Cc2ccccc2)n1 (stereo not drawn) [Example 117, N-[5-(2-chloro-5-cyanophenyl)-6-(2-phenylethynyl)pyridin-2-yl]-2-(methylamino)propanamide]
25 | – | 1980 nM | CC(N)C(=O)Nc1ccc(-c2ccccc2F)c(C#Cc2ccccc2)n1 (stereo not drawn) [Example 102, 2-amino-N-[5-(2-fluorophenyl)-6-(2-phenylethynyl)pyridin-2-yl]-propanamide]
